Reference: PMC7979765, “trans-Translation inhibitors bind to a novel site on the ribosome and clear Neisseria gonorrhoeae in vivo” (Nature Communications, 2021)
Values after ≈ are worked out from the molar mass of the structure shown. Values joined by “and” are separate entries in the source; they are usually repeats but may differ in a detail not shown here. Equal entries are not always repeated.

Test system: Neisseria gonorrhoeae
Assay: MIC, microbroth dilution, G77L medium
Format: cell-based

SMILES: O=C(Nc1nnc(-c2ccc(F)cc2)o1)N1CCc2ccccc2C1 [MBX-4132]
- MIC (Neisseria gonorrhoeae, strain CDC-0187, CIP, PEN, TET): 0.34 µg/mL (≈ 1 µM)
- MIC (Neisseria gonorrhoeae, strain CDC-0187, replicates 1-3): 0.338 µg/mL (≈ 0.999 µM)
- MIC (Neisseria gonorrhoeae, strain CDC-0188, CIP, PEN): 0.17 µg/mL (≈ 0.502 µM)
- MIC (Neisseria gonorrhoeae, strain CDC-0188, replicates 1-3): 0.169 µg/mL (≈ 0.499 µM)
- MIC (Neisseria gonorrhoeae, strain CDC-0189, CIP, PEN, TET): 0.13 µg/mL (≈ 0.384 µM)
- MIC (Neisseria gonorrhoeae, strain CDC-0189, replicates 1-3): 0.169 µg/mL (≈ 0.499 µM)
- MIC (Neisseria gonorrhoeae, strain CDC-0190, CIP, PEN, TET): 0.17 µg/mL (≈ 0.502 µM)
- MIC (Neisseria gonorrhoeae, strain CDC-0190, replicates 1-3): 0.169 µg/mL (≈ 0.499 µM)
- MIC (Neisseria gonorrhoeae, strain HO41, PEN, TET, CFM, CRO, LVX): 0.17 µg/mL (≈ 0.502 µM)
- MIC (Neisseria gonorrhoeae, strain HO41, replicates 1-3): 0.169 µg/mL (≈ 0.499 µM)
- MIC (Neisseria gonorrhoeae, strain MMX 6744, broth dilution by Micromyx): 0.27 µg/mL (≈ 0.798 µM)
- MIC (Neisseria gonorrhoeae, strain MMX 6746, CIP, by Micromyx): 0.14 µg/mL (≈ 0.414 µM)
- MIC (Neisseria gonorrhoeae, strain MMX 6752, TET, by Micromyx): 0.27 µg/mL (≈ 0.798 µM)
- MIC (Neisseria gonorrhoeae, strain MMX 6753, by Micromyx): 0.14 µg/mL (≈ 0.414 µM)
- MIC (Neisseria gonorrhoeae, strain MMX 6757, by Micromyx): 0.07 µg/mL (≈ 0.207 µM)
- MIC (Neisseria gonorrhoeae, strain MMX 6758, by Micromyx): 0.27 µg/mL (≈ 0.798 µM)
- MIC (Neisseria gonorrhoeae, strain MMX 6762, by Micromyx): 0.27 µg/mL (≈ 0.798 µM)
- MIC (Neisseria gonorrhoeae, strain MMX 6767, by Micromyx): 0.14 µg/mL (≈ 0.414 µM)
- MIC (Neisseria gonorrhoeae, strain MMX 6771, TET, by Micromyx): 0.14 µg/mL (≈ 0.414 µM)
- MIC (Neisseria gonorrhoeae, strain MMX 6793, CIP, by Micromyx): 0.14 µg/mL (≈ 0.414 µM)
- MIC (Neisseria gonorrhoeae, strain MMX 6797, CIP, TET, by Micromyx): 0.14 µg/mL (≈ 0.414 µM)
- MIC (Neisseria gonorrhoeae, strain MMX 6803, CIP, by Micromyx): 0.27 µg/mL (≈ 0.798 µM)
- MIC (Neisseria gonorrhoeae, strain MMX 6812, CIP, by Micromyx): 0.27 µg/mL (≈ 0.798 µM)
- MIC (Neisseria gonorrhoeae, strain MMX 6818, CIP, by Micromyx): 0.27 µg/mL (≈ 0.798 µM)
- MIC (Neisseria gonorrhoeae, strain MMX 6819, CIP, by Micromyx): 0.14 µg/mL (≈ 0.414 µM)
- MIC (Neisseria gonorrhoeae, strain MMX 6879, by Micromyx): 0.14 µg/mL (≈ 0.414 µM)
- MIC (Neisseria gonorrhoeae, strain MMX 6921, CIP, by Micromyx): 0.53 µg/mL (≈ 1.57 µM)
- MIC (Neisseria gonorrhoeae, strain MMX 6922, CIP, by Micromyx): 0.53 µg/mL (≈ 1.57 µM)
- MIC (Neisseria gonorrhoeae, strain MMX 6983, CIP, by Micromyx): 0.53 µg/mL (≈ 1.57 µM)
- MIC (Neisseria gonorrhoeae, strain MMX 6989, by Micromyx): 0.14 µg/mL (≈ 0.414 µM)
- MIC (Neisseria gonorrhoeae, strain MMX 6990, CIP, by Micromyx): 0.14 µg/mL (≈ 0.414 µM)
- MIC (Neisseria gonorrhoeae, strain MMX 6992, by Micromyx): 0.14 µg/mL (≈ 0.414 µM)
- MIC (Neisseria gonorrhoeae, strain MMX 6996, by Micromyx): 0.27 µg/mL (≈ 0.798 µM)
- MIC (Neisseria gonorrhoeae, strain MMX 6998, CIP, by Micromyx): 0.53 µg/mL (≈ 1.57 µM)
- MIC (Neisseria gonorrhoeae, strain MMX 7002, CIP, by Micromyx): 0.27 µg/mL (≈ 0.798 µM)
- MIC (Neisseria gonorrhoeae, strain MMX 7005, by Micromyx): 0.03 µg/mL (≈ 0.0887 µM)
- MIC (Neisseria gonorrhoeae, strain WHO F): 0.06 µg/mL (≈ 0.177 µM)
- MIC (Neisseria gonorrhoeae, strain WHO F, replicates 1-3): 0.066 µg/mL (≈ 0.195 µM)
- MIC (Neisseria gonorrhoeae, strain WHO G, PEN, TET): 0.13 µg/mL (≈ 0.384 µM)
- MIC (Neisseria gonorrhoeae, strain WHO G, replicates 1-3): 0.132 µg/mL (≈ 0.39 µM)
- MIC (Neisseria gonorrhoeae, strain WHO K, CIP, PEN, TET): 0.26 µg/mL (≈ 0.768 µM)
- MIC (Neisseria gonorrhoeae, strain WHO K, replicates 1-3): 0.264 µg/mL (≈ 0.78 µM)
- MIC (Neisseria gonorrhoeae, strain WHO L, CIP, PEN, TET): 0.26 µg/mL (≈ 0.768 µM)
- MIC (Neisseria gonorrhoeae, strain WHO L, replicates 1-3): 0.264 µg/mL (≈ 0.78 µM)
- MIC (Neisseria gonorrhoeae, strain WHO M, CIP, PEN, TET): 0.13 µg/mL (≈ 0.384 µM)
- MIC (Neisseria gonorrhoeae, strain WHO M, replicates 1-3): 0.132 µg/mL (≈ 0.39 µM)
- MIC (Neisseria gonorrhoeae, strain WHO N, CIP, PEN, TET): 0.26 µg/mL (≈ 0.768 µM)
- MIC (Neisseria gonorrhoeae, strain WHO N, replicates 1-3): 0.264 µg/mL (≈ 0.78 µM)
- MIC (Neisseria gonorrhoeae, strain WHO O, PEN, TET): 0.13 µg/mL (≈ 0.384 µM)
- MIC (Neisseria gonorrhoeae, strain WHO O, replicates 1-3): 0.132 µg/mL (≈ 0.39 µM)
- MIC (Neisseria gonorrhoeae, strain WHO P, PEN, TET): 0.33 µg/mL (≈ 0.975 µM)
- MIC (Neisseria gonorrhoeae, strain WHO U, PEN, TET): 0.13 µg/mL (≈ 0.384 µM)
- MIC (Neisseria gonorrhoeae, strain WHO U, replicates 1-3): 0.132 µg/mL (≈ 0.39 µM)
- MIC (Neisseria gonorrhoeae, strain WHO V, AZM, CIP, PEN, TET): 0.26 µg/mL (≈ 0.768 µM)
- MIC (Neisseria gonorrhoeae, strain WHO V, replicates 1-3): 0.264 µg/mL (≈ 0.78 µM)
- MIC (Neisseria gonorrhoeae, strain WHO W, CIP, PEN, TET): 0.13 µg/mL (≈ 0.384 µM)
- MIC (Neisseria gonorrhoeae, strain WHO W, replicates 1-3): 0.132 µg/mL (≈ 0.39 µM)
- MIC (Neisseria gonorrhoeae, strain WHO X, CIP, PEN, TET): 0.21 µg/mL (≈ 0.621 µM)
- MIC (Neisseria gonorrhoeae, strain WHO X, replicates 1-3): 0.132 µg/mL (≈ 0.39 µM)
- MIC (Neisseria gonorrhoeae, strain WHO Y, CIP, PEN, TET): 0.21 µg/mL (≈ 0.621 µM)
- MIC (Neisseria gonorrhoeae, strain WHO Y, replicates 1-3): 0.264 µg/mL (≈ 0.78 µM)
- MIC (Neisseria gonorrhoeae, strain WHO Z, CIP, PEN, TET): 0.26 µg/mL (≈ 0.768 µM)
- MIC (Neisseria gonorrhoeae, strain WHO Z, replicates 1-3): 0.264 µg/mL (≈ 0.78 µM)
- MIC (strain ATCC 49226, replicates 1-3): 0.169 µg/mL and 0.085 µg/mL
- MIC (strain ATCC 700719, replicates 1-3): 0.169 µg/mL and 0.338 µg/mL
- MIC (strain ATCC 700825, replicates 1-3): 0.042 µg/mL (≈ 0.124 µM)
- MIC (strain BAA-1846, replicates 1-3): 0.042 µg/mL (≈ 0.124 µM)
- MIC (strain CDC-0165, replicates 1-3): 0.677 µg/mL (≈ 2 µM)
- MIC (strain CDC-0166, replicates 1-3): 0.169 µg/mL (≈ 0.499 µM)
- MIC (strain CDC-0167, replicates 1-3): 0.169 µg/mL and 0.085 µg/mL
- MIC (strain CDC-0169, replicates 1-3): 0.169 µg/mL (≈ 0.499 µM)
- MIC (strain CDC-0170, replicates 1-3): 0.169 µg/mL (≈ 0.499 µM)
- MIC (strain CDC-0171, replicates 1-3): 0.169 µg/mL (≈ 0.499 µM)
- MIC (strain CDC-0172, replicates 1-3): 0.169 µg/mL (≈ 0.499 µM)
- MIC (strain CDC-0173, replicates 1-3): 0.169 µg/mL (≈ 0.499 µM)
- MIC (strain CDC-0174, replicates 1-3): 0.169 µg/mL (≈ 0.499 µM)
- MIC (strain CDC-0175, replicates 1-3): 0.085 µg/mL (≈ 0.251 µM)
- MIC (strain CDC-0176, replicates 1-3): 0.338 µg/mL (≈ 0.999 µM)
- MIC (strain CDC-0177, replicates 1-3): 0.169 µg/mL (≈ 0.499 µM)
- MIC (strain CDC-0178, replicates 1-3): 0.338 µg/mL (≈ 0.999 µM)
- MIC (strain CDC-0179, replicates 1-3): 0.085 µg/mL (≈ 0.251 µM)
- MIC (strain CDC-0180, replicates 1-3): 0.169 µg/mL (≈ 0.499 µM)
- MIC (strain CDC-0181, replicates 1-3): 0.169 µg/mL (≈ 0.499 µM)
- MIC (strain CDC-0182, replicates 1-3): 0.169 µg/mL (≈ 0.499 µM)
- MIC (strain CDC-0183, replicates 1-3): 0.338 µg/mL (≈ 0.999 µM)
- MIC (strain CDC-0184, replicates 1-3): 0.169 µg/mL (≈ 0.499 µM)
- MIC (strain CDC-0185, replicates 1-3): 0.338 µg/mL and 0.169 µg/mL
- MIC (strain CDC-0186, replicates 1-3): 0.169 µg/mL (≈ 0.499 µM)
- MIC (strain CDC-0187, replicates 1-3): 0.338 µg/mL (≈ 0.999 µM)
- MIC (strain CDC-0188, replicates 1-3): 0.169 µg/mL (≈ 0.499 µM)
- MIC (strain CDC-0189, replicates 1-3): 0.085 µg/mL and 0.169 µg/mL
- MIC (strain CDC-0190, replicates 1-3): 0.169 µg/mL (≈ 0.499 µM)
- MIC (strain HO41, replicates 1-3): 0.169 µg/mL (≈ 0.499 µM)
- MIC (strain WHO F, replicates 1-3): 0.066 µg/mL (≈ 0.195 µM)
- MIC (strain WHO G, replicates 1-3): 0.132 µg/mL (≈ 0.39 µM)
- MIC (strain WHO K, replicates 1-3): 0.264 µg/mL (≈ 0.78 µM)
- MIC (strain WHO L, replicates 1-3): 0.264 µg/mL (≈ 0.78 µM)
- MIC (strain WHO M, replicates 1-3): 0.132 µg/mL (≈ 0.39 µM)
- MIC (strain WHO N, replicates 1-3): 0.264 µg/mL (≈ 0.78 µM)
- MIC (strain WHO O, replicates 1-3): 0.132 µg/mL (≈ 0.39 µM)
- MIC (strain WHO P, replicates 1-3): 0.529 µg/ml and 0.264 µg/ml (2×)
- MIC (strain WHO U, replicates 1-3): 0.132 µg/mL (≈ 0.39 µM)
- MIC (strain WHO V, replicates 1-3): 0.264 µg/mL (≈ 0.78 µM)
- MIC (strain WHO W, replicates 1-3): 0.132 µg/mL (≈ 0.39 µM)
- MIC (strain WHO X, replicates 1-3): 0.264 µg/mL (≈ 0.78 µM)
- MIC (strain WHO Y, replicates 1-3): 0.132 µg/mL and 0.264 µg/mL
- MIC (strain WHO Z, replicates 1-3): 0.264 µg/mL (≈ 0.78 µM)
